ChEMBL document CHEMBL1909046, “DrugMatrix in vitro pharmacology data”

Assays:
[1] = biological target: Tyrosine-protein kinase Lck (Homo sapiens, UniProt P06239); assay: DRUGMATRIX: Protein Tyrosine Kinase, LCK enzyme inhibition (substrate: Poly(Glu:Tyr)); format: cell-based, Insect cells; conditions: insect cells; Not Active = under 50% inhibition at 10 µM
[2] = biological target: Beta-3 adrenergic receptor (Homo sapiens, UniProt P13945); assay: DRUGMATRIX: Adrenergic beta3 radioligand binding (ligand: [125I] Cyanopindolol); format: cell membranes, HEK293, Membrane; conditions: hek293; Not Active = under 50% inhibition at 10 µM
Chain of Beta-3 adrenergic receptor (P13945 whole entry): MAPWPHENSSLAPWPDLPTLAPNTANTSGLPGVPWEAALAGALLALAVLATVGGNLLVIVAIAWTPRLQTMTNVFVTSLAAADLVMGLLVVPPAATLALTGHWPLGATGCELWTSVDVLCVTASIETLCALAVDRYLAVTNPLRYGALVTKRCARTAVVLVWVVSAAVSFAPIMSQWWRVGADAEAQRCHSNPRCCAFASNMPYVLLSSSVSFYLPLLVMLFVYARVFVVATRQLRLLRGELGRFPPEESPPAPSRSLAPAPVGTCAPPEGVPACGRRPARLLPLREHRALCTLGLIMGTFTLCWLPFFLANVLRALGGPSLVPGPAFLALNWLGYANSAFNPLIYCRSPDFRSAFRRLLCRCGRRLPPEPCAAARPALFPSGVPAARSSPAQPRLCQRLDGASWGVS

[3] = biological target: Sigma non-opioid intracellular receptor 1 (Homo sapiens, UniProt Q99720); assay: DRUGMATRIX: Sigma1 radioligand binding (ligand: [3H] Haloperidol); format: cell membranes, Jurkat, Membrane; conditions: jurkat; Not Active = under 50% inhibition at 10 µM
Chain of Sigma non-opioid intracellular receptor 1 (Q99720 whole entry): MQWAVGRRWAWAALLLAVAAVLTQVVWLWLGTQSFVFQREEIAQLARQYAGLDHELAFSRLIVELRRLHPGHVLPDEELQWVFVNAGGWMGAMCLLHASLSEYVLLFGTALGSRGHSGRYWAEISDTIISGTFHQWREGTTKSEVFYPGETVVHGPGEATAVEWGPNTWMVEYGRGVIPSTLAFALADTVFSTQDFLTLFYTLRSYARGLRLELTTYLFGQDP

[4] = biological target: T1, Cholecystokinin receptor type A (Homo sapiens, UniProt P32238); format: cell membranes, Membrane; conditions: 1321-n1; further: in other assays of this panel Not Active means under 50% inhibition at 10 µM
T1 sequence (P32238 whole entry): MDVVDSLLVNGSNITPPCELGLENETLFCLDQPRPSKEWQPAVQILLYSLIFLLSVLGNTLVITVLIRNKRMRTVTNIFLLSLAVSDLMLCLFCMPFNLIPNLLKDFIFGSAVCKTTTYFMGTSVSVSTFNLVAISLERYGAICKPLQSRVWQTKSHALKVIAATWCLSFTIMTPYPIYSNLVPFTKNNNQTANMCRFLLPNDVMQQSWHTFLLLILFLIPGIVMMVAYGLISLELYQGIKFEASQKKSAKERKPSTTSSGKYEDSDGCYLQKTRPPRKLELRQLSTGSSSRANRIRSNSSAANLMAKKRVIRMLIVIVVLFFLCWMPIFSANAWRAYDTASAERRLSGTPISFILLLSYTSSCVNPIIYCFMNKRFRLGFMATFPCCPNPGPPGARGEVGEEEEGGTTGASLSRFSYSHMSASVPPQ

[5] = biological target: T2, 3-hydroxy-3-methylglutaryl-coenzyme A reductase (Homo sapiens, UniProt P04035); set-up: species or system Escherichia coli;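 further: enzyme inhibition assay of HMG-CoA reductase using radiolabeled [14C]HMG-CoA as substrate; in other assays of this panel Not Active means under 50% inhibition at 10 µM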
T2 sequence (P04035 whole entry): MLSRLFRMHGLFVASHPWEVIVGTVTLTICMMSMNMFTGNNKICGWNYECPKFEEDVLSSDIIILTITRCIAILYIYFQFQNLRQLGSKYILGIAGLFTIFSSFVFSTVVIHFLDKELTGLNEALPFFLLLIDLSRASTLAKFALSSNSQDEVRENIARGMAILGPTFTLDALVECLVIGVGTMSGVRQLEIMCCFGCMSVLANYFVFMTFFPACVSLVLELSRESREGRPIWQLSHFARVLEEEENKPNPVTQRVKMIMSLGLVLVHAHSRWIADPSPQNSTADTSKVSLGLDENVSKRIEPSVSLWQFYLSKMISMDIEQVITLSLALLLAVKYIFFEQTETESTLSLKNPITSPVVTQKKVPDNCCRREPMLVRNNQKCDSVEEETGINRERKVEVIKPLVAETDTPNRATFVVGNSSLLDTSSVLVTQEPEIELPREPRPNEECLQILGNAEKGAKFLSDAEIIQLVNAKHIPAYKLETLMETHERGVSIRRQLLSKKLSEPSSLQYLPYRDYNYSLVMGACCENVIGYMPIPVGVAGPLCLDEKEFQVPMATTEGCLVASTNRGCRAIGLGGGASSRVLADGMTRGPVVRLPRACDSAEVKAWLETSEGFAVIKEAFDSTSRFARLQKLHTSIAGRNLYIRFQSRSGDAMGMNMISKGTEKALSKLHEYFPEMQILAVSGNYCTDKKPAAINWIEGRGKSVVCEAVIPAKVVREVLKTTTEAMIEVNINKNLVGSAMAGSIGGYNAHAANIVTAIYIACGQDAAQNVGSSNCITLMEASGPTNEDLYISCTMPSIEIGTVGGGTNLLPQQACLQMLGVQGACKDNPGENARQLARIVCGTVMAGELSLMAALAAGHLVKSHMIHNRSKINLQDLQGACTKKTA

[6] = biological target: T3, Leukotriene C4 synthase (Cavia porcellus, UniProt A6XA80); assay: biochemical; format: tissue-based, Lung;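 further: enzyme inhibition assay of leukotriene C4 synthase, using LTA4 as the substrate; in other assays of this panel Not Active means under 50% inhibition at 10 µM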
T3 sequence (A6XA80 whole entry): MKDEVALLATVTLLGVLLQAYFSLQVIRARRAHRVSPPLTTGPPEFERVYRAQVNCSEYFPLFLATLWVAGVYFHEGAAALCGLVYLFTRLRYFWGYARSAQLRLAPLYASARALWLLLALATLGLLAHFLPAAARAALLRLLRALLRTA

[7] = biological target: T4, Alpha-1D adrenergic receptor (Homo sapiens, UniProt P25100); format: cell membranes, HEK293, Membrane; further: in other assays of this panel Not Active means under 50% inhibition at 10 µM
T4 sequence (P25100 whole entry): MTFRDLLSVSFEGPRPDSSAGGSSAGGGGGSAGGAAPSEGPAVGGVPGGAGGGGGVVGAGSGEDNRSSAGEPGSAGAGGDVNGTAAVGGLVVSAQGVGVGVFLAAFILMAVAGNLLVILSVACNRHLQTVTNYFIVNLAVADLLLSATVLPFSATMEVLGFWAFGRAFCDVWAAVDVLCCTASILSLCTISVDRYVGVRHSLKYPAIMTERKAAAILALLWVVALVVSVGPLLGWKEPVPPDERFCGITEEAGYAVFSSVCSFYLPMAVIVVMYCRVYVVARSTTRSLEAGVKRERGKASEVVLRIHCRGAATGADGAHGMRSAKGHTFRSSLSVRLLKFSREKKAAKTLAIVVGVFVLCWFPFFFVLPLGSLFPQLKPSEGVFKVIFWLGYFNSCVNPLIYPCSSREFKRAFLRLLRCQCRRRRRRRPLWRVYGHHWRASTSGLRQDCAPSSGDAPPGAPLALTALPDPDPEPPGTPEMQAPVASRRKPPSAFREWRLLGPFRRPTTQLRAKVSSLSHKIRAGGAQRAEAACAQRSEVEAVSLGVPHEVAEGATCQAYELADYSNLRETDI

Chain of Tyrosine-protein kinase Lck (P06239 whole entry): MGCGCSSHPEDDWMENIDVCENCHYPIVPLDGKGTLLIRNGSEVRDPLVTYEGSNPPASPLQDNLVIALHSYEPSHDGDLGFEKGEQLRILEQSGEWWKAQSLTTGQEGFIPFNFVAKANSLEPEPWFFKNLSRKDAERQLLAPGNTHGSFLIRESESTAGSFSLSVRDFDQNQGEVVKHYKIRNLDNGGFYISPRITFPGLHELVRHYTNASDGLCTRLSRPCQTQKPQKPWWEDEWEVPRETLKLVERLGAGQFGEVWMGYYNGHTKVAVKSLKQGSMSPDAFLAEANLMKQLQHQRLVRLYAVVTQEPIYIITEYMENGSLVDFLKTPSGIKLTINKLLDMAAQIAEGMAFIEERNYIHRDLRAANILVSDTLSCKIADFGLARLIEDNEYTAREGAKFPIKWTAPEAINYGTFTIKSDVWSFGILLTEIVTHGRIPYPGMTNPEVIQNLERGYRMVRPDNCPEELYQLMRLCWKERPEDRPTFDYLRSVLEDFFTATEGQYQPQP

Row | Compound | IC50 [1] | IC50 [2] | IC50 [3] | IC50 [4] | IC50 [5] | IC50 [6] | IC50 ([7]; hek293) | Ki [1] | Ki [2] | Ki [3] | Ki [4] | Ki [5] | Ki [6] | Ki ([7]; hek293) | IC50 ([7]; read-out: IC50) | Ki ([7]; read-out: Ki)
1 | O=C(O)c1ccccc1 [BENZOIC ACID] | Not Active | Not Active | Not Active | Not Active | Not Active | Not Active | Not Active | – | – | – | – | – | – | – | – | –
2 | CC[C@H]1OC(=O)[C@H](C)[C@@H](O[C@H]2C[C@@](C)(OC)[C@@H](O)[C@H](C)O2)[C@H](C)[C@@H](O[C@@H]2O[C@H](C)C[C@H](N(C)C)[C@H]2O)[C@](C)(O)C[C@@H](C)C(=O)[C@H](C)[C@@H](O)[C@]1(C)O [ERYTHROMYCIN] | Not Active | Not Active | Not Active | Not Active | Not Active | Not Active | Not Active | – | – | – | – | – | – | – | – | –
3 | c1ccc2c(c1)Nc1ccccc1S2 [PHENOTHIAZINE] | Not Active | Not Active | Not Active | Not Active | Not Active | Not Active | Not Active | – | – | – | – | – | – | – | – | –
4 | CHROMIC CHLORIDE | Not Active | Not Active | Not Active | Not Active | Not Active | Not Active | Not Active | Not Active | Not Active | Not Active | Not Active | Not Active | Not Active | Not Active | – | –
5 | Cl.NC[C@H]1CC[C@H](C(=O)Oc2ccc(CCC(=O)O)cc2)CC1 [CETRAXATE HYDROCHLORIDE] | Not Active | Not Active | Not Active | Not Active | Not Active | Not Active | Not Active | – | – | – | – | – | – | – | – | –
6 | O=c1[nH]c2ccccc2c2ccccc12 | Not Active | Not Active | Not Active | Not Active | Not Active | Not Active | Not Active | – | – | – | – | – | – | – | – | –
7 | C[C@H](C(=O)O)c1ccc2oc(-c3ccc(F)cc3)nc2c1 [FLUNOXAPROFEN] | Not Active | Not Active | Not Active | Not Active | Not Active | Not Active | Not Active | – | – | – | – | – | – | – | – | –
8 | O=C(O)CNCP(=O)(O)O [GLYPHOSATE] | Not Active | Not Active | Not Active | Not Active | Not Active | Not Active | Not Active | – | – | – | – | – | – | – | – | –
9 | C[N+](C)(C)CCOC(N)=O.[Cl-] [CARBACHOL] | Not Active | Not Active | Not Active | Not Active | Not Active | Not Active | Not Active | – | – | – | – | – | – | – | – | –
10 | O=C(O)CCc1nc(-c2ccccc2)c(-c2ccccc2)o1 [OXAPROZIN] | Not Active | Not Active | Not Active | Not Active | Not Active | Not Active | Not Active | – | – | – | – | – | – | – | – | –
11 | CC(=O)[C@]1(O)Cc2c(O)c3c(c(O)c2[C@@H](O[C@H]2C[C@H](N)[C@H](O)[C@H](C)O2)C1)C(=O)c1ccccc1C3=O [IDARUBICIN] | Not Active | Not Active | Not Active | Not Active | Not Active | Not Active | Not Active | – | – | – | – | – | – | – | – | –
12 | NS(=O)(=O)c1cc(C(=O)O)c(NCc2ccco2)cc1Cl [FUROSEMIDE] | Not Active | Not Active | Not Active | Not Active | Not Active | Not Active | Not Active | – | – | – | – | – | – | – | – | –
13 | O=C1CN(/N=C/c2ccc([N+](=O)[O-])o2)C(=O)N1 [NITROFURANTOIN] | Not Active | Not Active | Not Active | Not Active | Not Active | Not Active | Not Active | – | – | – | – | – | – | – | – | –
14 | CARBOXYMETHYLCELLULOSE | Not Active | Not Active | Not Active | Not Active | Not Active | Not Active | Not Active | Not Active | Not Active | Not Active | Not Active | Not Active | Not Active | Not Active | – | –
15 | c1ccc2sc(SSc3nc4ccccc4s3)nc2c1 [BENZOTHIAZYL DISULFIDE] | Not Active | Not Active | Not Active | Not Active | Not Active | Not Active | Not Active | – | – | – | – | – | – | – | – | –
16 | CC12CCC(CC1)C(C)(C)O2 [EUCALYPTOL] | Not Active | Not Active | Not Active | Not Active | Not Active | Not Active | Not Active | – | – | – | – | – | – | – | – | –
17 | CC(=O)Nc1ccc2c(c1)Cc1ccccc1-2 [2-ACETYLAMINOFLUORENE] | Not Active | Not Active | Not Active | Not Active | Not Active | Not Active | Not Active | – | – | – | – | – | – | – | – | –
18 | CCN1C[C@]2(COC)[C@H](O)C[C@H](OC)[C@@]34[C@@H]5C[C@@]6(O)[C@H](OC(=O)c7ccccc7)[C@@H]5[C@@](OC(C)=O)([C@@H]([C@H](OC)[C@H]23)[C@@H]14)[C@@H](O)[C@@H]6OC [ACONITINE] | Not Active | Not Active | Not Active | Not Active | Not Active | Not Active | Not Active | – | – | – | – | – | – | – | – | –
19 | CC(N)Cc1c[nH]c2ccc(OCc3cccs3)cc12 (stereo unspecified) [BW-723C86] | Not Active | Not Active | Not Active | Not Active | Not Active | Not Active | Not Active | – | – | – | – | – | – | – | – | –
20 | C=C(Cl)Cl [1,1-DICHLOROETHENE] | Not Active | Not Active | Not Active | Not Active | Not Active | Not Active | Not Active | – | – | – | – | – | – | – | – | –
21 | Nc1ccc(Cc2ccc(N)cc2)cc1 | Not Active | Not Active | Not Active | Not Active | Not Active | Not Active | Not Active | – | – | – | – | – | – | – | – | –
22 | Nc1nc(N)c2nc(CNc3ccc(C(=O)N[C@@H](CCC(=O)O)C(=O)O)cc3)cnc2n1 [AMINOPTERIN] | Not Active | Not Active | Not Active | Not Active | Not Active | Not Active | Not Active | – | – | – | – | – | – | – | – | –
23 | CCN(CCO)CCCC(C)Nc1ccnc2cc(Cl)ccc12 (stereo unspecified) [HYDROXYCHLOROQUINE] | Not Active | Not Active | Not Active | Not Active | Not Active | Not Active | – | – | – | – | – | – | – | – | 4.77 µM | 2.35 µM
